Where only a bound is given, the exact number is not on record here.

Data set [1] has as its system Entamoeba histolytica. The data set is described as follows: Antiamoebic activity against Entamoeba histolytica HM-1:IMSS after 72 hrs by microdilution assay. It is filed as functional, organism-based.
For data set [2], the system named is MCF7. The data set is described as follows: Cytotoxicity against human MCF7 cells after 48 hrs by MTT assay. It is filed as cell-based. The settings on record: MCF7, 48 h. In general terms: Tetrazolium assays rely on reduction of a dye to a coloured formazan, in cell work by metabolically active cells.
The nature of data set [3]: Cytotoxicity against human MCF7 cells assessed as cell viability up to 100 uM after 48 hrs by MTT assay. The data set is classed as cell-based. To be noted: read-out: Activity.
Data set [4] can be described thus: Cytotoxicity against human MCF7 cells assessed as cell viability at 1.56 to 50 uM after 48 hrs by MTT assay. The settings on record: read-out: Activity. It is filed as cell-based.

For orientation: IC50 means the midpoint of a concentration-inhibition curve. A higher IC50 goes with a need for much substance. As to `c1csc(-c2csnn2)c1`, the results for the IC50 in data set [1] and in data set [2] were 2250 nM and 66.9 µM, respectively.
Take `c1csc(-c2c[se]nn2)c1`: the midpoint of inhibition in data set [1], the IC50, lay at 5280 nM.
As to `c1coc(-c2csnn2)c1`, the results for the IC50 in data set [1] and in data set [2] were 230 nM and 95.1 µM, respectively.
Compound `c1ccc(-c2csnn2)cc1` returned an IC50 in data set [1] of 7460 nM.
The compound `Cc1ncc([N+](=O)[O-])n1CCO` [METRONIDAZOLE] yielded an IC50 in data set [2] above 100 µM. Also, the viability at 48 h in data set [3] was 100%.
The compound `Brc1ccc(-c2c[se]nn2)cc1` had an IC50 in data set [1] of 2950 nM.
As for `C/C(=N\NC(=O)COc1cccc2cccnc12)c1ccc(Cl)cc1`, the IC50 is 40 nM in data set [1] and above 100 µM in data set [2]. Further, the viability at 48 h in data set [3] was 100%.
Take `c1ccc(-c2csnn2)nc1`: in data set [1], the IC50 was 5460 nM.
As for `C/C(=N\NC(=O)COc1cccc2cccnc12)c1ccco1`, the IC50 in data set [1] was 50 nM; in data set [2] it was above 100 µM. The viability at 48 h in data set [3] came out at 100%.
The corresponding values for `Brc1ccc(-c2csnn2)cc1` are 240 nM, 68.1 µM and 68%.
Turning to `Clc1ccc(-c2c[se]nn2)cc1`, the IC50 in data set [1] was 580 nM; in data set [2], 57.1 µM. Further, the viability at 48 h, up to 50 µM in data set [4] was 66%. In addition, in data set [3], the viability at 48 h came to 57%.
`C/C(=N\NC(=O)COc1cccc2cccnc12)c1ccccn1`: the IC50 is 50 nM in data set [1] and above 100 µM in data set [2]. Moreover, the viability at 48 h in data set [3] is 100%.
With `C/C(=N\NC(=O)COc1cccc2cccnc12)c1ccc(Br)cc1`, the IC50 was 40 nM in data set [1] and above 100 µM in data set [2]. Besides, in data set [3], the viability at 48 h was 100%.
With `c1ccc(-c2c[se]nn2)nc1`, the figures for the IC50 in data set [1] and in data set [2] were 460 nM and 86.6 µM, respectively.
Consider `Clc1ccc(-c2csnn2)cc1`, for which the values for the IC50 in data set [1] and in data set [2] were 390 nM and above 100 µM, respectively.
For the compound `C/C(=N\NC(=O)COc1cccc2cccnc12)c1ccccc1`, the values for the IC50 in data set [1] and in data set [2] were 30 nM and above 100 µM, respectively. Further, the viability at 48 h in data set [3] was determined as 100%.
For the compound `C/C(=N\NC(=O)COc1cccc2cccnc12)c1cccs1`, the IC50 in data set [1] was 80 nM; in data set [2], above 100 µM. Moreover, the viability at 48 h in data set [3] was 88%.
On to `c1ccc(-c2c[se]nn2)cc1`, for which, in data set [1], the half-maximal inhibitory concentration (IC50) is 4560 nM.
For the compound `c1coc(-c2c[se]nn2)c1`, in data set [1], the IC50 was 5720 nM.

These data come from ChEMBL document CHEMBL1629513, “Synthesis, characterization, antiamoebic activity and cytotoxicity of novel 2-(quinolin-8-yloxy) acetohydrazones and their cyclized products (1,2,3-thiadiazole and 1,2,3-selenadiazole derivatives)” (Eur J Med Chem, 2010).
